The target of one experiment is Human LDHA (Homo sapiens (Human), UniProt P00338). The experiment is described as follows: human LDHA primary biochemical assay (resazurin/diaphorase coupled, fluorescence). As to conditions: LDHA inhibitory activity, activity level based on IC50 (Table 7). From the text: Test compounds were placed in a Greiner Bio-One (Monroe, N.C.) 1536-well black solid bottom assay plate. 200 millimolar (mM) Tris HCl, pH 7.4, 100 micromolar […] EDTA and 0.01% TWEEN-20™, final concentration, was used as the assay buffer. The LDHA reagent was 2 nanomolar (nM) Human LDHA (Meridian Life Science, Inc., Memphis, Tenn.), final concentration, in assay buffer.
(In general: The colour change of resazurin is a common sign of viable cells or microbes.)
Take `N[S+](=O)([O-])c1ccc(Cc2c(C3CC3)nn(-c3nc(C(=O)O)cs3)c2-c2cccc(-c3cccc(F)c3)c2)cc1F` [Compound 350]: the IC50 (usually the midpoint of a concentration-inhibition curve) lay within 1000 to 57000 nM.
The same measure, in the same setting: under `Cc1ccc(-c2nn(-c3nc(C(=O)O)cs3)cc2Cc2ccc(S(N)(=O)=O)cc2)cc1-c1cccc(N)c1` [Compound 487, 2-(3-(3′-amino-6-methyl-[1,1′-biphenyl]-3-yl)-4-(4-sulfamoylbenzyl)-1H-pyrazol-1-yl)thiazole-4-carboxylic acid] stands less than 100 nM; under `Cc1ccc(-c2cc(-c3nn(-c4nc(C(=O)O)cs4)c(C4CC4)c3Cc3ccc(S(N)(=O)=O)cc3)ccc2F)cc1` [Compound 484, 2-(5-cyclopropyl-3-(6-fluoro-4′-methyl-[1,1′-biphenyl]-3-yl)-4-(4-sulfamoylbenzyl)-1H-pyrazol-1-yl)thiazole-4-carboxylic acid], less than 100 nM.
In turn, `Cc1cc(C)cc(-c2cc(-c3nn(-c4nc(C(=O)O)cs4)cc3Cc3ccc(S(N)(=O)=O)cc3)ccc2C)c1` [Compound 495, 2-(4-(4-sulfamoylbenzyl)-3-(3′,5′,6-trimethyl-[1,1′-biphenyl]-3-yl)-1H-pyrazol-1-yl)thiazole-4-carboxylic acid] displayed an IC50 of 100 to 1000 nM.
The same measure, in the same setting: the result for `COc1cccc(COc2cccc(-c3nn(-c4nc(C(=O)O)cs4)cc3Cc3ccc(S(N)(=O)=O)cc3)c2)c1` [Compound 462, 2-(3-(3-((3-methoxybenzyl)oxy)phenyl)-4-(4-sulfamoylbenzyl)-1H-pyrazol-1-yl)thiazole-4-carboxylic acid] reads less than 100 nM; that for `NS(=O)(=O)c1ccc(Cc2cnn(-c3nc(C(=O)O)cs3)c2-c2cccnc2)cc1` [Compound 475, 2-(5-(pyridin-3-yl)-4-(4-sulfamoylbenzyl)-1H-pyrazol-1-yl)thiazole-4-carboxylic acid], 100 to 1000 nM; that for `Cc1ccc(-c2cccc(-c3nn(-c4nc(C(=O)O)cs4)c(C4CC4)c3Cc3ccc(S(N)(=O)=O)c(F)c3)c2)cc1` [Compound 347], less than 100 nM.
On the same count and under the same terms, the result for `COc1cccc(-c2cc(-c3nn(-c4nc(C(=O)O)cs4)cc3Cc3ccc(S(N)(=O)=O)cc3)ccc2F)c1` [Compound 456, 2-(3-(6-fluoro-3′-methoxy-[1,1′-biphenyl]-3-yl)-4-(4-sulfamoylbenzyl)-1H-pyrazol-1-yl)thiazole-4-carboxylic acid] reads less than 100 nM; that for `NS(=O)(=O)c1ccc(Cc2cn(-c3nc(C(=O)O)cs3)nc2-c2cccc(OCC3CCCO3)c2)cc1` (stereo not drawn) [Compound 463, 2-(4-(4-sulfamoylbenzyl)-3-(3-((tetrahydrofuran-2-yl)methoxy)phenyl)-1H-pyrazol-1-yl)thiazole-4-carboxylic acid], less than 100 nM.
For the molecule `N[S+](=O)([O-])c1ccc(Cc2c(CC3CC3)nn(-c3nc(C(=O)O)cs3)c2-c2cccc(OCc3ccccc3)c2)cc1` [Compound 342], the IC50 lay within 1000 to 57000 nM.
On to `Cc1ccc(-c2cc(-c3nn(-c4nc(C(=O)O)cs4)cc3Cc3ccc(S(N)(=O)=O)cc3)ccc2F)cc1C` [Compound 516, 2-(3-(6-fluoro-3′,4′-dimethyl-[1,1′-biphenyl]-3-yl)-4-(4-sulfamoylbenzyl)-1H-pyrazol-1-yl)thiazole-4-carboxylic acid], for which the IC50 fell in the range of 100 to 1000 nM.

Still in this experiment, the particulars now being: LDHA inhibitory activity, assay of Example 1; activity level classes.
The molecule `CCOC(=O)c1csc(-n2nc(-c3ccc(F)c(-c4cccc(OC)c4)c3)c(Cc3ccc(S(N)(=O)=O)c(F)c3)c2CC2CC2)n1` [Compound 322] displayed an IC50 of 1000 to 57000 nM.
Same read-out and setting: under `CCOC(=O)c1csc(-n2nc(CC3CC3)c(Cc3ccc(S(N)(=O)=O)cc3F)c2-c2ccc(F)c(-c3cccc(OC)c3)c2)n1` [Compound 319] stands more than 57000 nM.
Still for that read-out and setting: the result for `O=C(Oc1ccc2c(c1)CCC2)c1csc(-n2nc(-c3ccc(F)c(F)c3)cc2O)n1` [Compound 108, 2,3-dihydro-1H-inden-5-yl 2-(3-(3,4-difluorophenyl)-5-hydroxy-1H-pyrazol-1-yl)thiazole-4-carboxylate] reads more than 57000 nM; that for `CCOC(=O)c1csc(-n2nc(-c3cccc(-c4ccccc4)c3)c(Cc3ccc(S(N)(=O)=O)cc3)c2C2(C(F)(F)F)CC2)n1` [Compound 297], more than 57000 nM; that for `CCOC(=O)c1csc(-n2nc(-c3ccccc3)c(Cc3ccc(S(N)(=O)=O)cc3)c2CC#N)n1` [Compound 135, ethyl 2-(5-(cyanomethyl)-3-phenyl-4-(4-sulfamoylbenzyl)-1H-pyrazol-1-yl)thiazole-4-carboxylate], more than 57000 nM.
`NS(=O)(=O)c1ccc(Cc2c(-c3ccc(F)c(-c4ccc(F)cc4)c3)nn(-c3nc(C(=O)O)cs3)c2C2CC2)cc1F` [Compound 250] returned an IC50 of less than 100 nM.
In the case of `NS(=O)(=O)c1ccc(Cc2c(-c3cccc(-c4ccccc4)c3)nn(-c3nc(C(=O)O)cs3)c2C2CC2(F)F)cc1` (stereo not drawn) [Compound 205, 2-(3-([1,1′-biphenyl]-difluorocyclopropyl)-4-(4-sulfamoylbenzyl)-1H-pyrazol-1-yl)thiazole-4-carboxylic acid], the IC50 is less than 100 nM.
For the molecule `CS(=O)(=O)NCCc1cc(-c2cc(O)n(-c3nc(C(=O)O)cs3)n2)ccc1F` [Compound 122, 2-(3-(4-fluoro-3-(2-(methylsulfonamido)ethyl)phenyl)-5-hydroxy-1H-pyrazol-1-yl)thiazole-4-carboxylic acid], the IC50 is more than 57000 nM.
On the same count and under the same terms, under `CCOC(=O)OC(C)OC(=O)c1csc(-n2nc(-c3ccc(F)c(F)c3)cc2OC(C)OC(=O)OCC)n1` (stereo not drawn) [Compound 98, 1-((ethoxycarbonyl)oxy)ethyl 2-(3-(3,4-difluorophenyl)-5-(1-((ethoxycarbonyl)oxy)ethoxy)-1H-pyrazol-1-yl)thiazole-4-carboxylate] stands more than 57000 nM; under `CCOC(=O)c1csc(-n2nc(-c3ccc(F)c(-c4cccc(F)c4)c3)c(Cc3ccc(S(N)(=O)=O)c(F)c3)c2CC2CC2)n1` [Compound 318], more than 57000 nM.
On the same count and under the same terms, the result for `CCOC(=O)c1csc(-n2nc(-c3ccc(F)c(-c4cccc(OC)c4)c3)c(Cc3ccc(S(N)(=O)=O)cc3F)c2CC2CC2)n1` [Compound 320] reads more than 57000 nM; that for `CCOC(=O)c1csc(-n2nc(-c3ccccc3)c(Cc3ccc(S(N)(=O)=O)cc3)c2Cc2nnn[nH]2)n1` [Compound 134, ethyl 2-(5-((1H-tetrazol-5-yl)methyl)-3-phenyl-4-(4-sulfamoylbenzyl)-1H-pyrazol-1-yl)thiazole-4-carboxylate], more than 57000 nM; that for `NS(=O)(=O)c1ccc(Oc2c(-c3ccccc3)nn(-c3nc(C(=O)O)cs3)c2C2CC2)cc1` [Compound 166, 2-(5-cyclopropyl-3-phenyl-4-(4-sulfamoylphenoxy)-1H-pyrazol-1-yl)thiazole-4-carboxylic acid], less than 100 nM.
In turn, `O=C(O)c1csc(-n2nc(-c3ccc(F)c(F)c3)cc2C(=O)O)n1` [Compound 71, 2-(5-carboxy-3-(3,4-difluorophenyl)-1H-pyrazol-1-yl)thiazole-4-carboxylic acid] showed an IC50 of more than 57000 nM.
As to `NS(=O)(=O)c1ccc(Nc2c[nH]nc2-c2cccc(-c3ccccc3)c2)cc1` [Compound 161], the IC50 was more than 57000 nM.

The experiment is the same for the next values; noted with them: read-out: Inhibitory activity IC50.
For the molecule `N[S+](=O)([O-])c1ccc(Cc2c(CC3CC3)nn(-c3nc(C(=O)O)cs3)c2-c2ccc(F)c(-c3ccc(C4CC4)cc3)c2)cc1` [Compound 293], the IC50 fell in the range of 1000 to 57000 nM.
Same read-out and setting: under `NS(=O)(=O)c1ccc(Cc2cn(-c3nc(C(=O)O)cs3)c3cc(CO)ccc23)cc1` [Compound 201, 2-(6-(hydroxymethyl)-3-(4-sulfamoylbenzyl)-1H-indol-1-yl)thiazole-4-carboxylic acid] stands 100 to 1000 nM.
Consider `NS(=O)(=O)c1ccc(Cc2c(-c3ccccc3)nn(-c3nc(C(=O)O)cs3)c2Cc2ccccc2)cc1` [Compound 185, 2-(5-benzyl-3-phenyl-4-(4-sulfamoylbenzyl)-1H-pyrazol-1-yl)thiazole-4-carboxylic acid], for which the IC50 was 100 to 1000 nM.
Still for that read-out and setting: the result for `NS(=O)(=O)c1ccc(Cc2cn(-c3nc(C(O)C(F)(F)F)cs3)nc2-c2ccccc2)cc1` (stereo not drawn) [Compound 154, 4-((3-phenyl-1-(4-(2,2,2-trifluoro-1-hydroxyethyl)thiazol-2-yl)-1H-pyrazol-4-yl)methyl)benzenesulfonamide] reads 100 to 1000 nM.
In the case of `NS(=O)(=O)c1ccc(Oc2c(-c3ccccc3)nn(-c3nc(C(=O)O)cs3)c2C2CCCCC2)cc1` [Compound 173, 2-(5-cyclohexyl-3-phenyl-4-(4-sulfamoylphenoxy)-1H-pyrazol-1-yl)thiazole-4-carboxylic acid], the IC50 lay within 1000 to 57000 nM.
On the same count and under the same terms, the result for `O=C(O)c1ccc(Cc2c(-c3cccc(-c4ccccc4)c3)nn(-c3nc(C(=O)O)cs3)c2O)cc1` [Compound 68, 2-(3-([1,1′-biphenyl]-3-yl)-4-(4-carboxybenzyl)-5-hydroxy-1H-pyrazol-1-yl)thiazole-4-carboxylic acid] reads more than 57000 nM; that for `Cc1csc(-n2nc(-c3ccccc3)c(Cc3ccc(S(N)(=O)=O)cc3)c2N)n1` [Compound 86, 4-((5-amino-1-(4-methylthiazol-2-yl)-3-phenyl-1H-pyrazol-4-yl)methyl)benzenesulfonamide], 1000 to 57000 nM.
For the molecule `NS(=O)(=O)c1ccc(Oc2c(C3CCCCC3)nn(-c3nc(C(=O)O)cs3)c2-c2ccccc2)cc1` [Compound 172, 2-(3-cyclohexyl-5-phenyl-4-(4-sulfamoylphenoxy)-1H-pyrazol-1-yl)thiazole-4-carboxylic acid], the IC50 fell in the range of 1000 to 57000 nM.
For the molecule `CCOC(=O)c1csc(-n2nc(-c3cccc(-c4ccccc4)c3)c(Cc3ccc(S(N)(=O)=O)cc3)c2O)n1` [Compound 73, ethyl 2-(3-([1,1′-biphenyl]-3-yl)-5-hydroxy-4-(4-sulfamoylbenzyl)-1H-pyrazol-1-yl)thiazole-4-carboxylate], the IC50 fell in the range of 1000 to 57000 nM.
`Nc1c(Cc2ccc(S(N)(=O)=O)cc2)c(-c2ccccc2)nn1C(=O)c1cccc(F)c1` [Compound 85, 4-((5-amino-1-(3-fluorobenzoyl)-3-phenyl-1H-pyrazol-4-yl)methyl)benzenesulfonamide]: the IC50 was in the range of 1000 to 57000 nM.

Source of the values: patent publication US10961200B2, “Small molecule inhibitors of lactate dehydrogenase and methods of use thereof” (THE UNITED STATES OF AMERICA, AS REPRESENTED BY THE …, priority 2014, dated 2021).
